From article PMC12040169 (PLOS Biology, 2025)

Assay: in vitro
Details: human, hela cells, % viability

Row | SMILES | viability at 28.5 h, 10 µM
1 | O=c1oc2cc(S(=O)(=O)NCc3ccco3)ccc2c2ccc(S(=O)(=O)NCc3ccco3)cc12 [CBK267177] | 96.5%
2 | CCOC(=O)c1cn(CC2CC2)c2cc(F)c(F)cc2c1=O [CBK304195] | 98.1%
3 | Cc1cccc(NCC2CCN(CC(=O)Nc3cc(C)on3)C2)n1 (centres unmarked) [CBK306118] | 90.4%
4 | Cc1ccc(-c2ccc(/C=C(\C#N)c3nc(-c4ccco4)cs3)o2)c([N+](=O)[O-])c1 [CBK266685] | 96%
5 | COc1ccc2[nH]cc(CCNC(=O)[C@@H]3Cc4c([nH]c5ccccc45)C4(CCN(Cc5ccc(F)cc5)C4)N3)c2c1 (some centres unmarked) [CBK066937] | 98%
6 | Cc1ccccc1C(NC(=O)C1CCN(S(=O)(=O)C(C)C)CC1)c1ccccn1 (centres unmarked) [CBK059711] | 104%
7 | CC(=O)Nc1ccc(S(=O)(=O)NC2(C(F)(F)F)NC(=O)N(C3CCCC3)C2=O)cc1 (centres unmarked) [CBK268100] | 84.6%
8 | CCN1CCC2CCC(C1)N2Cc1ccc(Oc2cnccn2)cc1 (centres unmarked) [CBK304034] | 95.7%
9 | COc1cccc(CN2CCN(C(=O)N3CCCC3)[C@@H](C)C2)c1 [CBK285491] | 107%
10 | CCCCOc1ccc(-c2cn(CC(N)=O)cn2)cc1 [CBK009035] | 110%
11 | Cc1cc(C)c(C)c(S(=O)(=O)NCCCC(=O)O)c1C [CBK268898] | 83.8%
12 | COC(=O)[C@H]1CN(C(=O)Cc2ccccn2)C[C@@H]1c1ccc(F)cc1 [CBK283519] | 93.8%
13 | COc1ccc(OC(=O)N2CCC(n3c(=O)[nH]c4ccccc43)CC2)cc1 [CBK149868] | 102%
14 | O=C(O)c1ccccc1SC1CCc2ccccc2NC1=O (centres unmarked) [CBK286683] | 83.1%
15 | Cn1c(=O)c2c(nc(S)n2CCCc2ccccc2)n(C)c1=O [CBK288411] | 105%
16 | Cc1ccc(S(=O)(=O)Nc2ccc(N3CCCNCC3)cc2N(C)S(C)(=O)=O)cc1 [CBK000017C] | 113%
17 | Cc1cnc2c(c1)cc(C1CCOCC1)n2CC(=O)N(C)C [CBK284754] | 102%
18 | O=S(=O)(Cc1ccc(Cl)cc1)NCCCn1ccnc1 [CBK268372] | 106%
19 | Cc1ccc2[nH]c3c(c2c1)CCNC31CCN(C(=O)[C@@H]2CCCC[C@@H]2C(=O)O)CC1 [CBK047222] | 89.9%
20 | O=C(NC1CC1)[C@H]1CN2CCC1C[C@@H]2Cn1cc(C2(O)CCCC2)nn1 (some centres unmarked) [CBK289092] | 82.1%
21 | CC[C@H]1CN(C(=O)Nc2cccc(C(F)(F)F)c2)CC[C@H]1CC(=O)O [CBK288776] | 89.3%

Row | SMILES | viability at 28.5 h, 10 µM
22 | COc1cc(/C=C2\SC(=S)N(CC(=O)NNC(=O)c3ccccc3O)C2=O)ccc1O [CBK261301] | 94%
23 | O=C(COc1ccccc1)N1CCC(c2cc3cnccc3[nH]2)CC1 [CBK283449] | 97.6%
24 | Cn1cc(-c2ncc(OCCc3cccs3)nc2N)cn1 [CBK145167] | 87.8%
25 | CC1(C)Cc2c(cnn2-c2ccc(F)cc2)C(N)C1 (centres unmarked) [CBK288200] | 91.9%
26 | O=C(CC(Nc1ccccc1Cl)C(=O)O)c1ccccc1 (centres unmarked) [CBK265386] | 81.1%
27 | CN1CCC[C@@H]2[C@H]1[C@@H](c1ccc(F)cc1)CN2C(=O)c1ccccn1 [CBK283081] | 103%
28 | Cn1c(N2CC[C@H](O)C2)nc2cc(C(=O)NC3CCCC3)ccc21 [CBK306779] | 97.6%
29 | CCOc1ccc(CC(=O)N2CCCc3c(cnn3C)C2)cc1 [CBK285325] | 101%
30 | COc1cc(OC)nc(C(NC(=O)C2CCN(CCc3c[nH]c4ccccc34)CC2)c2ccccc2C)n1 (centres unmarked) [CBK148101] | 104%
31 | CCc1nc2ccc(C(=O)Nc3ccc(OC)c(OC)c3)cn2c1N(CC)C(=O)NCCc1ccccc1 [CBK147035] | 97.1%
32 | O=c1c2sccc2nc2n1CCN(Cc1ccc(F)c(F)c1)CC2 [CBK282295] | 103%
33 | Cc1cccc(C(=O)Nc2cccc(OCC(=O)O)c2)c1 [CBK268599] | 114%
34 | O=C(COc1ccc([N+](=O)[O-])cc1)N/N=C/c1cc(Br)cc(Br)c1O [CBK262094] | 98.3%
35 | CC(=O)N[C@@H](Cc1ccccc1)C(=O)N1CC[C@H]2NC(=O)[C@H](Cc3ccccc3)NC(=O)C3(C/C=C/C[C@@H]2C1)CCOCC3 [CBK292190] | 82.2%
36 | COC1CCN(C2CCc3c(Cl)cc(Cl)cc32)CC1 (centres unmarked) [CBK304883] | 90.6%
37 | COc1cc(CNC(=O)NC(=O)C2CCN(CCCc3ccc(Cl)c(Cl)c3)CC2)cc(OC)c1OC [CBK034858] | 107%
38 | O=C(NCc1ccccc1)c1ccc2[nH]nnc2c1 [CBK200368] | 86.9%
39 | CS(=O)(=O)N1CCCCCC1c1cc(-c2ccc(F)cc2)no1 (centres unmarked) [CBK284669] | 91.8%
40 | Cc1cnc2c(c1)cc(C(F)(F)F)n2CC(=O)NC1CC1 [CBK282887] | 105%
41 | CCOc1ccc2nc(NC3=NC(CC(=O)O)C(=O)N3)nc(C)c2c1 (centres unmarked) [CBK263120] | 103%
42 | C/C(CC(=O)Nc1ccc(C)cc1)=N\NC(=O)c1cccc(O)c1 [CBK262618] | 104%

Row | SMILES | viability at 28.5 h, 10 µM
43 | O=S(=O)(Nc1cccc(-c2nnn[nH]2)c1)c1sc(Cl)cc1Br [CBK155035] | 94.6%
44 | COc1cccc(Nc2cc(-c3ccco3)ncn2)c1OC [CBK090727] | 92.2%
45 | Cn1cc(-c2ccc(OCC3CCN(C(=O)OC(C)(C)C)CC3)cn2)cn1 [CBK173498] | 77.8%
46 | CN(CC(=O)O)S(=O)(=O)c1cccc2cccc(Cl)c12 [CBK268433] | 107%
47 | Clc1ccc(CN2CCN(Cc3ccc(Cl)cc3)C2c2ccncc2)cc1 [CBK265207] | 104%
48 | CC(C)C(=O)N1CC2(CCN(Cc3nc4ccccc4s3)CC2)c2ccccc21 [CBK136980] | 96%
49 | Cc1nc(CCNC(=O)C2CCN(C(=O)c3ccc(F)cc3)CC2)cs1 [CBK304378] | 105%
50 | Cn1c(Cc2cccs2)nnc1SCC(=O)c1c[nH]c2ccccc12 [CBK268534] | 102%
51 | CCn1c(=O)n(CC(=O)N2CCCC3CCCCC32)c2cccnc21 (centres unmarked) [CBK283893] | 87.3%
52 | CC(C)C(c1nnnn1Cc1ccccc1)N1CCOCC1 (centres unmarked) [CBK028054] | 117%
53 | COc1ccc(-c2c(C(F)(F)F)oc3cc(OC(=O)c4cccc(C)c4)ccc3c2=O)cc1OC [CBK263907] | 99.3%
54 | O=C(NCCCC1CCOC1)c1[nH]nc2c1CCCCC2 (centres unmarked) [CBK283154] | 88.7%
55 | Cc1cc(C(F)(F)F)nc(SCC(=O)N2c3ccccc3Sc3ccccc32)n1 [CBK268078] | 90.8%
56 | COc1ccc(C(NC(=O)[C@H]2CCCN2C(=O)NCc2ccccc2C)c2ccccc2C)cn1 (some centres unmarked) [CBK075051] | 90.9%
57 | O=C(Cc1ccccc1)Nc1nnc(-c2ccccc2)o1 [CBK287597] | 95.4%
58 | Cn1c(SCc2nnc(-c3ccccc3)o2)nnc1C(O)c1ccccc1 (centres unmarked) [CBK269640] | 92.3%
59 | O=C(OCCc1ccncc1)N1CCCC(F)(F)C1 [CBK200157] | 92.2%
60 | COc1ccccc1NC(=O)c1ccc(OC(C)C(=O)O)cc1 (centres unmarked) [CBK266109] | 106%
61 | CC(C)(C)C(=O)CN1CCC2(CC1)OCCc1c2[nH]c2ccc(F)cc12 [CBK040237] | 95.8%
62 | c1ccc(-n2nnnc2SCc2cccc(CSc3nnnn3-c3ccccc3)n2)cc1 [CBK263258] | 90.4%
